The target in one series is T1, Human PPARα (Homo sapiens, UniProt Q07869).
T1 construct: expressed in transfected cells; host or cells: 293-T cells, transient transfection
T1 sequence (Q07869 239-466 limits assumed): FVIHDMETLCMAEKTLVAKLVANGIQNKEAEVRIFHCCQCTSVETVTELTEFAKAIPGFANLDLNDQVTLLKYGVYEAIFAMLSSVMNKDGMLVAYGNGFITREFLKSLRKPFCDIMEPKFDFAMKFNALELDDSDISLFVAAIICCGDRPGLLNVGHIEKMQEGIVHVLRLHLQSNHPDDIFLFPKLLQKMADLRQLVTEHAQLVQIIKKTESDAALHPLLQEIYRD
Put plainly: Activation of human PPARα, GAL4 chimeric receptor luciferase reporter assay in transiently transfected 293-T cells. The following applies: for Photon number (×10^4) / Increased multiple vs control: compounds 10 μM, PPARα; for Photon number (×10^4): luciferase 24 h after administration; for Increased multiple vs control: vs DMSO control. The format is cell-based. On the procedure: (§1) The compounds were screened with respect to their functional effect of instantaneous transfection in 293-T cells, so that their capabilities of activating PPAR subtypes were determined. A chimeric receptor system as established in advance was used to compare the influence of receptor subtypes on the transcription activity of same target gene. Human PPARα and PPARγ ligand-binding domains were fused respectively with yeast transcription factor GAL4 DNA-binding domains, and then linked to expression vector pM of mammal, to thereby construct two plasmids pM-hPPARα/GAL4 and pM-PPARγ/GAL4. GAL4 DNA-binding area was linked to pB4-tk-luc, to thereby construct pB4-RES-tk-luc (a firefly luciferase reporter gene comprising GAL4 DNA-binding site). pRL-CMV-Rluc was used as an internal control to normalize transfection efficiency and endogenous influence.
293-T cells were incubated in a 48-well plate at a cell density of 2-4×10^4/well, using a phenol red-free and antibiotic-free 1640 medium containing 10% defatted fetal calf serum (FCS). After culturing for 48 h, the medium was replaced with a phenol red-free and antibiotic-free 1640 medium containing 5% defatted FCS, and then three plasmids pM-hPPAR/GAL4, pB4-RES-tk-luc and pRL-CMV-Rluc pertaining to two subtypes were respectively co-transfected into the 293-T cells. The strength of luciferase was measured at the time of 24 h after administration, with 0.2% DMSO as a blank control.
For orientation: In a reporter assay the amount or activity of a reporter protein is the signal.

In a further series the target is T2, Human PPARγ (Homo sapiens, UniProt P37231).
T2 construct: expressed in transfected cells; host or cells: 293-T cells, transient transfection
T2 sequence (P37231 238-503 limits assumed): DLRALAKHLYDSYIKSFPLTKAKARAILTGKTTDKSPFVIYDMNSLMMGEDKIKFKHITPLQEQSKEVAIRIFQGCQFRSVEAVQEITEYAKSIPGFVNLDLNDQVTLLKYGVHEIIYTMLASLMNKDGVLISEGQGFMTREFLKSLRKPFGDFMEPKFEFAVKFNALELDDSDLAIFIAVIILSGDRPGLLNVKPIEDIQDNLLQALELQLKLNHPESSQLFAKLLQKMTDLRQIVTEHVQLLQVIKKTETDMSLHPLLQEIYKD
Put plainly: Activation of human PPARγ, GAL4 chimeric receptor luciferase reporter assay in transiently transfected 293-T cells. The series is classed as cell-based.
Excerpt: as §1, with “A” for “The compounds were screened with respect to their functional effect of instantaneous transfection in 293-T cells, so that their capabilities of activating PPAR subtypes were determined. A”
The strength of luciferase was measured at the time of 24 h after administration, with 0.2% DMSO as a blank control.

On to `Cc1cccc(N2CCN([C@@H](Cc3ccc(OCCc4nc(-c5ccccc5)oc4C)cc3)C(=O)O)CC2)c1` [Example 1, (2S)-3-{4-[2-(5-methyl-2-phenyl-1,3-oxazol-4-yl)-ethoxy]-phenyl}-2-(4-m-tolyl-piperazin-1-yl)-propionic acid], for which, at Human PPARα, the “Photon number (×10^4)” value was 11.3 ×10^4 and the “Increased multiple vs control” value stood at 5.3.
By melting point is commonly meant the temperature, or range, at which the solid turns liquid. `Cc1oc(-c2ccccc2)nc1CCOc1ccc(C[C@@H](C(=O)O)N2CCN(S(=O)(=O)c3ccccc3F)CC2)cc1` [Example 3, (2S)-2-[4-(2-fluoro-benzenesulfonyl)-piperazin-1-yl]-3-{4-[2-(5-methyl-2-phenyl-1,3-oxazol-4-yl)-ethoxy]-phenyl}-propionic acid] gave a melting point of 170 to 172 °C.
Regarding `Cc1oc(-c2ccccc2)nc1CCOc1ccc(C[C@@H](C(=O)O)N2CCN(c3ccccc3)CC2)cc1` [Example 8, (2S)-3-{4-[2-(5-methyl-2-phenyl-1,3-oxazol-4-yl)-ethoxy]-phenyl}-2-(4-phenyl-piperazin-1-yl)-propionic acid], the melting point fell in the range of 218 to 220 °C. Further, on Human PPARα, the “Photon number (×10^4)” value was 13.2 ×10^4 and the “Increased multiple vs control” value was found to be 6.3.
`Cc1oc(-c2ccccc2)nc1CCOc1ccc(C[C@@H](C(=O)O)N2CCN(c3ccccc3)CC2)cc1Br` [Example 10, (2S)-3-{3-bromo-4-[2-(5-methyl-2-phenyl-1,3-oxazol-4-yl)-ethoxy]-phenyl}-2-(4-phenylpiperazin-1-yl)-propanoic acid] registered a melting point of 220 to 222 °C.
Same read-out and setting: to `Cc1oc(-c2ccccc2)nc1CCOc1ccc(C[C@@H](C(=O)O)N2CCN(c3cccc(Cl)c3)CC2)cc1` [Example 7, (2S)-2-[4-(m-chloro-phenyl)-piperazin-1-yl]-3-{4-[2-(5-methyl-2-phenyl-1,3-oxazol-4-yl)-ethoxy]-phenyl}-propionic acid] belongs 138 to 139 °C.
In turn, `Cc1oc(-c2ccccc2)nc1CCOc1ccc(C[C@@H](C(=O)O)N2CCN(S(=O)(=O)c3ccc(F)cc3)CC2)cc1` [Example 4, (2S)-2-[4-(4-fluoro-benzenesulfonyl)-piperazin-1-yl]-3-{4-[2-(5-methyl-2-phenyl-1,3-oxazol-4-yl)-ethoxy]-phenyl}-propionic acid] came in with a melting point of 198 to 200 °C. Further, at Human PPARα, the “Photon number (×10^4)” value is reported as 6.8 ×10^4 and the “Increased multiple vs control” value is 3.2. Further, the “Photon number (×10^4)” value at Human PPARγ (compounds 10 μM, PPARγ, luciferase 24 h after administration) is listed as 2.8 ×10^4. Further, on Human PPARγ (compounds 10 μM, PPARγ, vs control), the “Increased multiple vs control” value was 2.0.
For orientation: EC50 means the concentration needed to bring the measured effect to its halfway point. High values mean weaker potency, low ones greater potency. In turn, `Cc1oc(-c2ccccc2)nc1CCOc1ccc(C[C@@H](C(=O)O)N2CCN(S(=O)(=O)c3ccccc3[N+](=O)[O-])CC2)cc1` [Example 6, (2S)-2-[4-(2-nitro-benzenesulfonyl)-piperazin-1-yl]-3-{4-[2-(5-methyl-2-phenyl-1,3-oxazol-4-yl)-ethoxy]-phenyl}-propionic acid] returned a melting point of 171 to 173 °C. The compound also registered an EC50 on Human PPARα (activation of PPARα) of 1050 nM. The same compound registered an EC50 on Human PPARγ (activation of PPARγ) of 3200 nM.

These data come from patent US7544687B2, “Substituted α-piperazinyl phenylpropionic acid derivatives as hPPAR α and/or hPPAR γ agonists” (Beijing Molecule Science and Technology Co., Ltd, priority 2004, dated 2009).
